# Target: human PDE4B1 (Homo sapiens (Human), UniProt Q07343)
# Assay: TR-FRET assay using the LANCE Ultra cAMP kit to determine the activity of hPDE4B1
# Type: biochemical
# Conditions: IC50 inhibition of PDE4B, mean
# Source text: TR-FRET Assay Using the LANCE® Ultra cAMP Kit to Determine the Activity of hPDE4B1
# The effects of the compounds on the activity of the human PDE4B1 was quantified by measuring the production of 5′AMP from cAMP using a human recombinant enzyme expressed in Sf9 cells and the LANCE® Ultra cAMP kit, a TR-FRET detection method from PerkinElmer. The human PDE4B1 enzyme was purchased from SignalChem Lifesciences (Catalog# P92-31BG, Lot# H296-2).
# The test compound, reference compound or water (control) was mixed with the enzyme (0.96 U) in a reaction buffer containing 50 mM Tris-HCl, 50 mM MgCl2 and 5 mM DTT (pH 8.5). Thereafter, the reaction was initiated by addition of 500 nM cAMP (substrate) and the mixture was incubated for 30 minutes at room temperature. For control basal measurements, the enzyme was omitted from the reaction mixture. After 30 minutes, the reaction was stopped and diluted by a factor of 100 with the reaction buffer supplemented with 500 μM IBMX. The fluorescence donor (europium chelate-labeled cAMP) and the fluorescence acceptor (anti-cAMP antibody labeled with the ULight™ dye) were then added together with 500 μM IBMX to a 10 μl aliquot. After 60 minutes, the fluorescence transfer corresponding to the amount of residual cAMP was measured at λex=337 nm, λem=620 nm and λem=665 nm using a microplate reader (PHERAstar, BMG). The enzyme activity was determined by dividing the signal measured at 665 nm by that measured at 620 nm (ratio) multiplied by 10000. The results were expressed as percent inhibition of the control enzyme activity. IC50 values (IC50=concentration causing a half-maximal inhibition of control specific activity) were derived from dose response measurements with ten different concentrations (n=3; N=1-3).
# Several compounds according to the invention are tested with above mentioned assay.
# Chain of human PDE4B1 (Q07343 whole entry): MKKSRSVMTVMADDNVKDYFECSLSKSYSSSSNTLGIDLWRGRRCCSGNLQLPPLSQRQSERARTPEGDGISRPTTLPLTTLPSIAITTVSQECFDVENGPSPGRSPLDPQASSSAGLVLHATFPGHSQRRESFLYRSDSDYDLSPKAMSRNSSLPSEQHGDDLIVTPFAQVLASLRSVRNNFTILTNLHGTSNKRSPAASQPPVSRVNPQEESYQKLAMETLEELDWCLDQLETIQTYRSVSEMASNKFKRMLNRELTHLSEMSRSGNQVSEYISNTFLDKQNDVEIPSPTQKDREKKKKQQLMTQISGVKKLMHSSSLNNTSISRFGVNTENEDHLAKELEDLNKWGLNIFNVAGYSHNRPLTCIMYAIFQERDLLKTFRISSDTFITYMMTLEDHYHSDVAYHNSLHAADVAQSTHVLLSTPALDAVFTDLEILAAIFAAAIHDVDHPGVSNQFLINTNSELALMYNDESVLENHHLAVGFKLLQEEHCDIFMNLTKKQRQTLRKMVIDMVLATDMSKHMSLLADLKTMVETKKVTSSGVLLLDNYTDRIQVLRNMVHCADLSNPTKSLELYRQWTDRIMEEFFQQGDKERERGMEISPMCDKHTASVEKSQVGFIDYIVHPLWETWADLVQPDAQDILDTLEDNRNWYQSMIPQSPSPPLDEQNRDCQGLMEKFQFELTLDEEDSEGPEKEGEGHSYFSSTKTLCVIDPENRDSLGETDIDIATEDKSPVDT
row,IC50,SMILES
1,< 0.1 µM,"CC(C)c1ccnc(-c2cnc(N3CC4(CC4)c4ccc(C(=O)N(C)CCO)cc43)nc2)c1 [Compound 242, N-(2-Hydroxy-ethyl)-1-[5-(4-isopropyl-pyridin-2-yl)-pyrimidin-2-yl]-N-methyl-spiro[1,2-dihydro-indole-3,1′-cyclopropane]-6-carboxylic acid amide]"
2,< 0.1 µM,"CN(CCO)C(=O)c1ccc2c(c1)N(c1ncc(-c3cc(S(C)(=O)=O)ccc3F)cn1)CC21CC1 [Compound 296, 1-[5-(2-Fluoro-5-methylsulfonyl-phenyl)-pyrimidin-2-yl]-N-(2-hydroxy-ethyl)-N-methyl-spiro[1,2-dihydro-indole-3,1′-cyclopropane]-6-carboxylic acid amide]"
3,< 0.1 µM,"CCc1ccnc(-c2cnc(N3CC4(CC4)c4ccc(C(=O)N5C[C@@H]6C[C@H]5CN6)cc43)nc2)c1 [Compound 298, [(1S,4S)-2,5-Diazabicyclo[2.2.1]heptan-2-yl]-[1-[5-(4-ethyl-pyridin-2-yl)-pyrimidin-2-yl]-spiro[1,2-dihydro-indole-3,1′-cyclopropane]-6-yl]-methanone]"
4,< 0.1 µM,"CN(CCO)C(=O)c1ccc2c(c1)N(c1ncc(-c3cc(C(N)=O)cs3)cn1)CC21CC1 [Compound 348, 1-[5-(4-Carbamoyl-thiophen-2-yl)-pyrimidin-2-yl]-N-(2-hydroxy-ethyl)-N-methyl-spiro[1,2-dihydro-indole-3,1′-cyclopropane]-6-carboxylic acid amide]"
5,< 0.1 µM,"Cc1cccc(-c2cnc(N3CC4(CC4)c4ccc(C(=O)N5CCNC(=O)C5)cc43)nc2)n1 [Compound 286, 4-[1-[5-(6-Methyl-pyridin-2-yl)-pyrimidin-2-yl]-spiro[1,2-dihydro-indole-3,1′-cyclopropane]-6-carbonyl]-piperazin-2-one]"
6,< 0.1 µM,"CC(=O)Nc1ccnc(-c2cnc(N3CC4(CC4)c4ccc(C(=O)N(C)CCO)cc43)nc2)c1 [Compound 252, 1-[5-(4-Acetylamino-pyridin-2-yl)-pyrimidin-2-yl]-N-(2-hydroxy-ethyl)-N-methyl-spiro[1,2-dihydro-indole-3,1′-cyclopropane]-6-carboxylic acid amide]"
7,< 0.1 µM,"CN(C)C(=O)c1ccc2c(c1)N(c1ncc(-c3cc(N(C)C)ccn3)cn1)CC21CC1 [Compound 271, 1-[5-(4-Dimethylamino-pyridin-2-yl)-pyrimidin-2-yl]-N,N-dimethyl-spiro[1,2-dihydro-indole-3,1′-cyclopropane]-6-carboxylic acid amide]"
8,< 0.1 µM,"Nc1ccnc(-c2cnc(N3CC4(CC4)c4ccc(C(=O)N5CCNC(=O)C5)cc43)nc2)c1 [Compound 258, 4-[1-[5-(4-Amino-pyridin-2-yl)-pyrimidin-2-yl]-spiro[1,2-dihydro-indole-3,1′-cyclopropane]-6-carbonyl]-piperazin-2-one]"
9,< 0.1 µM,"CCc1cccc(-c2cnc(N3CC4(CC4)c4ccc(C(=O)N(C)CCO)cc43)nc2)n1 [Compound 268, 1-[5-(6-Ethyl-pyridin-2-yl)-pyrimidin-2-yl]-N-(2-hydroxy-ethyl)-N-methyl-spiro[1,2-dihydro-indole-3,1′-cyclopropane]-6-carboxylic acid amide]"
10,< 0.1 µM,"CC(O)c1ccc(F)c(-c2cnc(N3CC4(CC4)c4ccc(C(=O)N(C)CCO)cc43)nc2)c1 (stereo not shown) [Compound 312, 1-[5-[2-Fluoro-5-(1-hydroxy-ethyl)-phenyl]-pyrimidin-2-yl]-N-(2-hydroxy-ethyl)-N-methyl-spiro[1,2-dihydro-indole-3,1′-cyclopropane]-6-carboxylic acid amide]"
11,< 0.1 µM,"O=C(O)C1CCCN(C(=O)c2ccc3c(c2)N(c2ncc(-c4ccccc4F)cn2)CC32CC2)C1 (stereo not shown) [Compound 238, 1-[1-[5-(2-Fluorophenyl)-pyrimidin-2-yl]-spiro[1,2-dihydro-indole-3,1′-cyclopropane]-6-carbonyl]-piperidine-3-carboxylic acid]"
12,< 0.1 µM,"CCc1nc(-c2cnc(N3CC4(CC4)c4ccc(C(=O)N(C)CCO)cc43)nc2)cs1 [Compound 325, 1-[5-(2-Ethyl-thiazol-4-yl)-pyrimidin-2-yl]-N-(2-hydroxy-ethyl)-N-methyl-spiro[1,2-dihydro-indole-3,1′-cyclopropane]-6-carboxylic acid amide]"
13,< 0.1 µM,"CN(CCO)C(=O)c1ccc2c(c1)N(c1ncc(-c3cccc(C4CC4)c3)cn1)CC21CC1 [Compound 267, 1-[5-(3-Cyclopropyl-phenyl)-pyrimidin-2-yl]-N-(2-hydroxy-ethyl)-N-methyl-spiro[1,2-dihydro-indole-3,1′-cyclopropane]-6-carboxylic acid amide]"
14,< 0.1 µM,"Cc1ccnc(-c2cnc(N3CC4(CC4)c4ccc(C(=O)N5C[C@@H]6C[C@H]5CN6)cc43)nc2)c1 [Compound 297, [(1S,4S)-2,5-Diazabicyclo[2.2.1]heptan-2-yl]-[1-[5-(4-methyl-pyridin-2-yl)-pyrimidin-2-yl]-spiro[1,2-dihydro-indole-3,1′-cyclopropane]-6-yl]-methanone]"
15,< 0.1 µM,"O=C(c1ccc2c(c1)N(c1ncc(-c3ccccc3F)cn1)CC21CC1)N1CCC[C@H](CO)C1 [Compound 317, [1-[5-(2-Fluorophenyl)-pyrimidin-2-yl]-spiro[1,2-dihydro-indole-3,1′-cyclopropane]-6-yl]-[(3S)-3-(hydroxymethyl)-piperidin-1-yl]-methanone]"
16,< 0.1 µM,"Nc1ccnc(-c2cnc(N3CC4(CC4)c4ccc(C(=O)N5C[C@@H]6C[C@H]5CN6)cc43)nc2)c1 [Compound 301, [1-[5-(4-Amino-pyridin-2-yl)-pyrimidin-2-yl]-spiro[1,2-dihydro-indole-3,1′-cyclopropane]-6-yl]-[(1S,4S)-2,5-diazabicyclo[2.2.1]heptan-2-yl]-methanone]"
17,< 0.1 µM,"CN(CCO)C(=O)c1ccc2c(c1)N(c1ncc(-c3cccc([S+](C)[O-])c3)cn1)CC21CC1 (stereo not shown) [Compound 281, N-(2-Hydorxy-ethyl)-N-methyl-1-[5-[3-(methylsulfinyl)-phenyl]pyrimidin-2-yl]-spiro[1,2-dihydro-indole-3,1′-cyclopropane]-6-carboxylic acid amide]"
18,< 0.1 µM,"CS(=O)(=O)c1ccnc(-c2cnc(N3CC4(CC4)c4ccc(C(=O)N5CCOCC5)cc43)nc2)c1 [Compound 345, [1-[5-(4-Methylsulfonyl-pyridin-2-yl)-pyrimidin-2-yl]-spiro[1,2-dihydro-indole-3,1′-cyclopropane]-6-yl]-morpholin-4-yl-methanone]"
19,< 0.1 µM,"CC(O)c1cccc(-c2cnc(N3CC4(CC4)c4ccc(C(=O)N(C)CCO)cc43)nc2)c1 (stereo not shown) [Compound 322, N-(2-Hydroxy-ethyl)-1-[5-[3-(1-hydroxy-ethyl)-phenyl]-pyrimidin-2-yl]-N-methyl-spiro[1,2-dihydro-indole-3,1′-cyclopropane]-6-carboxylic acid amide]"
20,0.1 to 1 µM,"COCCN1CCN(C(=O)c2ccc3c(c2)N(c2ncc(-c4ccccc4F)cn2)CC32CC2)CC1 [Compound 235, [1-[5-(2-Fluorophenyl)-pyrimidin-2-yl]-spiro[1,2-dihydro-indole-3,1′-cylcopropane]-6-yl]-[4-(2-methoxy-ethyl)-piperazin-1-yl]-methanone]"
21,< 0.1 µM,"CN(CCO)C(=O)c1ccc2c(c1)N(c1ncc(-c3cc(C(C)(C)O)ccc3F)cn1)CC21CC1 [Compound 309, 1-[5-[2-Fluoro-5-(1-hydroxy-1-methyl-ethyl)-phenyl]-pyrimidin-2-yl]-N-(2-hydroxy-ethyl)-N-methyl-spiro[1,2-dihydro-indole-3,1′-cyclopropane]-6-carboxylic acid amide]"
22,< 0.1 µM,"O=C(c1ccc2c(c1)N(c1ncc(-c3ccccc3F)cn1)CC21CC1)N1CCO[C@@H](CO)C1 [Compound 362, [1-[5-(2-Fluorophenyl)-pyrimidin-2-yl]-spiro[1,2-dihydro-indole-3,1′-cyclopropane]-6-yl]-[(2R)-2-(hydroxymethyl)-morpholin-4-yl]-methanone]"
23,< 0.1 µM,"O=C(c1ccc2c(c1)N(c1ncc(-c3ccccc3F)cn1)CC21CC1)N(CCO)C1CC1 [Compound 278, N-Cyclopropyl-1-[5-(2-fluorophenyl)-pyrimidin-2-yl]-N-(2-hydroxy-ethyl]-spiro[1,2-dihydro-indole-3,1′-cyclopropane]-6-carboxylic acid amide]"
24,< 0.1 µM,"Nc1ccnc(-c2cnc(N3CC4(CC4)c4ccc(C(=O)N5C[C@H]6C[C@@H]5CN6)cc43)nc2)c1 [Compound 356, [1-[5-(4-Amino-pyridin-2-yl)-pyrimidin-2-yl]-spiro[1,2-dihydro-indole-3,1′-cylcopropane]-6-yl]-[(1R,4R)-2,5-diazabicyclo[2.2.1]heptan-2-yl]-methanone]"

row,SMILES,IC50
1,"CN(CCO)C(=O)c1ccc2c(c1)N(c1ncc(-c3nc(CCO)cs3)cn1)CC21CC1 [Compound 339, N-(2-Hydroxy-ethyl)-1-[5-[4-(2-hydroxy-ethyl)-thiaozl-2-yl]-pyrimidin-2-yl]-N-methyl-spiro[1,2-dihydro-indole-3,1′-cyclopropane]-6-carboxylic acid amide]",< 0.1 µM
